Entries after “also recorded” stand apart in the source; their conditions may differ.
How the values were obtained:
[1] = biological target: T1, full-length human EB3 recombinant protein (Homo sapiens, UniProt Q9UPY8); test: Sulfolink coupling gel-NAP affinity chromatography with recombinant EB3, western analysis; format: binding; settings: 2 mg soluble peptide incubated with recombinant EB3 and column beads
T1 construct: Full-length human EB3 was subcloned into pEX-N-His vector; 6xHis (N, cleaved yes); made in house; host or cells: E. coli BL21(DE3)
Protocol: Column load, flow through, wash and elution fractions were further analyzed by polyacrylamide gel electrophoresis, followed by western analysis with EB3 antibodies. […] Column chromatography, elution and western blots were performed as above. The extract fractions (flow, wash and elution) were separated by electrophoresis followed by protein detection (FIG. 6).

[2] = test system: primary cortical neurons; test: PSD-95 density in primary cortical neuron culture; format: cell-based, rat; settings: neurons treated for 2 hrs
Protocol: Methods: 1. Primary cultures of neurons were prepared as follows. Newborn rats were sacrificed on postnatal day 1. Cerebral cortex tissue was then dissected and dissociated individually from each pup with the Papain Dissociation System (PDS; Worthington Biochemical Corporation) according to the manufacturer's instructions. 2. Cells were fixed with ice cold methanol, blocked with 2% bovine serum albumin (BSA) and 5% normal goat serum in Tris buffered saline containing tween 20 (TBS-T; 20 mM Tris pH 7.5, 136.8 mM NaCl, and 0.05% v/v Tween 20), and incubated with primary antibody followed by the appropriate secondary antibody. 3. Primary antibodies that were used include: monoclonal anti PSD-95 (ab-2723, Abcam), monoclonal anti Tyr-α-tubulin antibody (YL1/2) (VMA1864, Abcys, Paris, France), polyclonal anti Glu-α-tubulin antibody (L4) (AbC0101, Abcys, Paris, France), DyLight 488-labeled secondary goat anti-mouse IgG, DyLight 633-labeled secondary goat anti-rabbit IgG (KPL, Gaithersburg, Md., USA), Cy3-conjugated secondary goat anti-Rat IgG, (Jackson ImmunoResearch). 4. Images were collected with a Leica SP5 confocal laser scanning microscope (Mannheim, Germany) with 63× oil immersion optics, laser lines at 488, 561, 633 nm. Identical confocal laser scanning microscopy (CLSM) parameters (e.g., scanning line, laser light, gain, and offset etc.) were used for control and NAP treated cells.
For instance, a PSD-95 expression assay using primary cortical neuron cultures established from suitable animals may be performed to confirm a compound's activity in promoting cell plasticity. More specifically, primary cultures of neurons are prepared by first taking cerebral cortex tissue from newborn rats on postnatal day 1. The cerebral cortex tissue is then dissected and dissociated individually from each animal. Cells are fixed with ice cold methanol, blocked (e.g., with bovine serum albumin (BSA) and normal goat serum), and incubated with primary antibody (e.g., monoclonal antibody against PSD-95), optionally followed by the appropriate secondary antibody for imaging purposes. Images of primary neuronal cultures are taken and compared between cultures with or without being exposed to a test compound. An increased PSD-95 expression is indicative of the test compound being capable of promoting or protecting cell plasticity, especially neuronal plasticity.
Cerebral cortex tissue from newborn rats was dissected and dissociated individually from each pup with the Papain Dissociation System (PDS), (Worthington Biochemical Corporation) according to the manufacturer's instructions. Cortical neurons were maintained in Neurobasal medium (NB), (Gibco) supplemented with NeuroCult B27-SM1 ([…]), 1% Glutamax (Gibco), and grown on poly-D-lysine-coated cell culture glass cover slips.
Images were collected with a Leica SP5 confocal laser scanning microscope (Mannheim, Germany) with 63× oil immersion optics, laser lines at 488, 561, 633 nm or with LSM 510 META (Zeiss, Jena, Germany) confocal laser scanning microscope with 63× oil immersion optics, laser lines at 488, 568, 633 nm. When comparing fluorescence intensities, identical CLSM parameters (e.g., scanning line, laser light, gain, and offset etc.) were used. All of the fluorescent signals acquired were above the autofluorescent background as measured from a control slide stained with secondary antibody without a primary antibody. To compare the relative levels of protein expression, the average integrated density (AID) image analysis procedure was used for cell immunostains. In brief, integrated density is defined by the sum of the values of the pixels in the selected region of interest (ROI). This is equivalent to the product of Area and Mean Gray Value. AID for the positive stained area was determined by measuring the fluorescent intensity of the ROI, which is above the positive cut-off intensity. […]

[3] = test system: ADNP+/− mice; test: Object recognition test in ADNP-deficient mice; format: in vivo, mouse; settings: intranasal, twice a day, 1 month, ADNP+/− male mice
Source text: All procedures involving animals were approved by the Animal Care and Use Committee of Tel Aviv University and the National Institutes of Health (Bethesda, Md.). ADNP heterozygous mice, a model for cognitive impairments (Vulih-Shultzman et al., 2007, J. Pharmacol. Exp. Ther. 323:438-449), were housed in a 12-h light/12-h dark cycle facility, and free access to rodent chow and water was available.
SKIP (SEQ ID NO:6) treatment included daily intranasal administrations over a 1 month period to 5-month-old male mice (2 μg/5 μl/mouse/day). For intranasal administration, the peptide was dissolved in a vehicle solution, in which each milliliter included 7.5 mg of NaCl, 1.7 mg of citric acid monohydrate, 3 mg of disodium phosphate dihydrate, and 0.2 mg of benzalkonium chloride solution (50%). SKIP (SEQ ID NO:6) or vehicle solution (DD) was administered to mice hand-held in a semisupine position with nostrils facing the investigator. A pipette tip was used to administer 5 μl/each nostril. The mouse was handheld until the solution was totally absorbed (˜10 s). Nasal SKIP (SEQ ID NO:6) application was performed daily, twice a day, for 1 month (5 days a week). After 1 month, SKIP (SEQ ID NO:6) was applied 2 h before the behavioral tests (described below).
The test includes 2 consecutive days of habituation (five minutes per day) and the experimental day which consists of the three phases. The test was conducted two hours after the daily intranasal SKIP (SEQ ID NO:6). During the first phase (Phase 1, habituation phase), the open field apparatus (arena of 50×50 cm) contained two identical objects (samples) and a mouse was placed in the apparatus facing the wall and allowed to freely explore the objects. At the end of the 5-min session of Phase 1, the mouse was put back into its home cage for 3 hours. […] The time spent sniffing/touching each object was measured. The data was analyzed using the following formula: D1=b−a, when ‘a’ designated the time of exploration of the familiar object and ‘b’ designated the time of exploration of the novel object. […]

T1 sequence (Q9UPY8 whole entry): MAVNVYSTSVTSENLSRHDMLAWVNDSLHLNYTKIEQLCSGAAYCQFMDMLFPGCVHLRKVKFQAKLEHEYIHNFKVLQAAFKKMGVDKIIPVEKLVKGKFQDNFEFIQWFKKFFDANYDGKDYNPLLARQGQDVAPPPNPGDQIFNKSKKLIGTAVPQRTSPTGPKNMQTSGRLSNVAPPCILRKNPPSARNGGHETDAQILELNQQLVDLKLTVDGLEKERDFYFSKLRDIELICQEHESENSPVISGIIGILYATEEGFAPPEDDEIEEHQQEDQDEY

For “NAPVSKIPQ (synthetic novel peptide core sequence SKIP derived from hybrid microtubule end-binding protein 3 (EB3)- binding microtubule plus-end tracking proteins (+TIPs) and activity-dependent neurotrophic factor (ADNF) active core site (NAP))”, the “competition for EB3 binding to column-bound NAP” value [1] was “no binding of EB3 to the column bound NAP”, the “derivative peptides effect on PSD-95 density vs vehicle controls (FIG. 10c)” value [2] was “paralleled to NAPVSIPQ activity; also recorded: significantly increased” and the “object recognition, Phase 2 short retention (discrimination index D1)” value [3] was “improved the memory”.
